Laboratory results reported in publication PMC12263422, “Cryo-EM structure of the human THIK-1 K2P K^+ channel reveals a lower Y gate regulated by lipids and anesthetics” (Nature Structural & Molecular Biology, 2025).
“And” between values parts separate entries of the source, which are not always exact repeats. Equal entries are not always repeated. Where two headings read alike, the source gives them in different places.

What was measured:
Assay type in all cases: cell-based
THIK-1 N261A = molecular target: T1, THIK-1 N261A (Homo sapiens, UniProt Q9HB14, N261A); experiment: Inside-out excised patch recordings, oocytes, THIK-1 N261A mutant (lipid activation); conditions: read-out: Linoleic acid EC50
T1 construct: expressed in transfected cells; host or cells: Xenopus oocytes (mRNA injection)
T1 sequence (Q9HB14 whole entry N261A): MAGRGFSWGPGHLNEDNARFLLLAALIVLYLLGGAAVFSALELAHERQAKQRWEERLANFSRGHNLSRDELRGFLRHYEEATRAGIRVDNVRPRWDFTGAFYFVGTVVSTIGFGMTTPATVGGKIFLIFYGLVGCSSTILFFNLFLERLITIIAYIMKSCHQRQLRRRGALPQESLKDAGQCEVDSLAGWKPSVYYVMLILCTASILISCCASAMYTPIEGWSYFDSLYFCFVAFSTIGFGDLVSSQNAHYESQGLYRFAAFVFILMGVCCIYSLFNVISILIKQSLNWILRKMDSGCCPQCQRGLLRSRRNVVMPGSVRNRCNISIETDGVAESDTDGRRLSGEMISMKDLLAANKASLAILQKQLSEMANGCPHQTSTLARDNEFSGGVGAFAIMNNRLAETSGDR
Description: Supplement 41594_2025_1497_MOESM2_ESM.xlsx, sheet "ExtData_Fig_S5f" | column: Linoleic acid EC50 (µM); N261A

THIK-1 F262A = molecular target: T2, THIK-1 F262A (Homo sapiens, UniProt Q9HB14, F262A); experiment: Inside-out excised patch recordings, oocytes, THIK-1 F262A mutant (lipid activation); conditions: for EC50: Linoleic acid EC50, THIK-1 F262A; for Normalized currents / Fold activation with 30.0 µM linoleic acid: THIK-1 F262A
T2 construct: expressed in transfected cells; host or cells: Xenopus oocytes (mRNA injection)
T2 sequence (Q9HB14 1-408 F262A): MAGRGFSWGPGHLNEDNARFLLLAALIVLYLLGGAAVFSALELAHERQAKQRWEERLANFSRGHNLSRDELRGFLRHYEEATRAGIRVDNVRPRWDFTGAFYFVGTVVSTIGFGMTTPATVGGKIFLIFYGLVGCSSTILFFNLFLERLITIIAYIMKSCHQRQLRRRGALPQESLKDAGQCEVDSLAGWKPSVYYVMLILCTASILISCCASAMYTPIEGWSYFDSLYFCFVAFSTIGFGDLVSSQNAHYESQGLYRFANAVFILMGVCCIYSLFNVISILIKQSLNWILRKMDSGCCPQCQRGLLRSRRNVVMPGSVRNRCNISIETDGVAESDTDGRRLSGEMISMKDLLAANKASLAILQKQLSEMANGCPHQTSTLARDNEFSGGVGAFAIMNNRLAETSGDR
Description: Human K2P13.1 THIK-1 (GenBank accession number: NM_022054) and human K2P12.1 THIK-2 (NM_022055.1) were used in this study. For functional expression studies, the respective K^+ channel subtype coding sequences were subcloned into the oocyte expression vector pSGEM or the dual-purpose expression vector pFAW[41] and verified by sequencing. All mutant channels were obtained by site-directed mutagenesis and verified by sequencing. To increase surface expression and macroscopic currents, measurements of THIK-2 channels used a mutated ER retention motif, (R11A R12A R14A R15A R16A; THIK-2*)[20]. Vector DNA was linearized with NheI or MluI, and mRNA was synthesized in vitro using the SP6 or T7 AmpliCap Max High Yield Message Maker Kit (Cellscript, USA) or HiScribe T7 ARCA mRNA Kit (New England Biolabs).
Two-electrode voltage–clamp (TEVC) studies were performed in Xenopus oocytes. All animal use conformed to the Guide for the Care and Use of Laboratory Animals (NIH Publication 85–23), and all experiments using Xenopus toads were approved by the local ethics panels. Oocytes were stored at 17 °C in ND96 recording solution composed of (in mM): 96 NaCl, 2 KCl, 1.8 CaCl2, 1 MgCl2, 5 HEPES (pH 7.5 adjusted with NaOH and HCl), supplemented with Na-pyruvate (275 mg L^–1), theophylline (90 mg L^–1) and gentamicin (50 mg L^–1). Oocytes were injected with 1 ng mRNA for WT or mutant channels, and were incubated for 24–48 h at 17 °C. Two-electrode voltage clamp recordings were then performed as previously described[42],[43]. For macroscopic patch–clamp measurements, oocytes were obtained as described above incubated at 17 °C in a solution containing (mM): 54 NaCl, 30 KCl, 2.4 NaHCO3, 0.82 MgSO4 ×7 H2O, 0.41 CaCl2, 0.33 Ca(NO3)2 ×4 H2O and 7.5 TRIS (pH 7.4 adjusted with NaOH and HCl) for 1–4 days before use. Excised patch recordings in inside-out configuration conditions were performed at room temperature. Patch pipettes were made from thick-walled borosilicate glass GB 200TF-8P (Science Products), had resistances of 0.2–0.5 MΩ (tip diameter, 10–25 µm) and filled with a pipette solution (in mM): 120 KCl, 10 HEPES and 3.6 CaCl2 (pH 7.4 adjusted with KOH and HCl). Intracellular bath solutions and compounds were applied to the cytoplasmic side of excised patches for the various K^+ channels through a gravity flow multi-barrel pipette system. The intracellular solution had the following composition (in mM): 120 KCl, 10 HEPES, 2 EGTA and 1 pyrophosphate (pH adjusted with KOH and HCl). Currents were recorded with an EPC10 amplifier (HEKA Electronics) and sampled at 10 kHz or higher, with filtering set to 3 kHz (–3 dB) or higher, as appropriate for sampling rate. For measurements of GPCR activation, whole-cell currents were recorded for THIK-1 in transiently transfected HEK-293 cells. Cells were stimulated by a ramp protocol between −100 and +60 mV (holding potential, −80 mV). The pipette solution was composed of (in mM): 140 KCl, 2 MgCl2, 1 CaCl2, 2.5 EGTA and 10 HEPES (pH 7.3 adjusted with KOH and HCl). The extracellular bath solution had the following composition (in mM): 135 NaCl, 5 KCl, 2 MgCl2, 2 CaCl2, 10 glucose and 10 HEPES pH (pH 7.3 adjusted with NaOH and HCl). Oxotremorine M (Oxo-M) was added to extracellular bath solution to obtain the final concentration. Single-channel currents were recorded with an Axopatch 200B amplifier through a Digidata 1440A digitizer (Molecular Devices). Data were filtered at 2 kHz and recorded at a 200-kHz sampling rate with the program Clampex (Molecular Devices). Pipette solution and bath solution for cell-attached recordings contained (in mM): 140 KCl, 2 MgCl2, 1 CaCl2 and 10 HEPES (pH 7.4 adjusted with KOH and HCl). For inside-out recordings, the bath solution contained (in mM): 140 KCl, 2 MgCl2, 1 CaCl2 and 10 HEPES (pH 7.2 adjusted with KOH and HCl). All experiments were conducted at room temperature. […]

THIK-1 S109A = molecular target: T3, THIK-1 S109A (Homo sapiens, UniProt Q9HB14, S109A); experiment: Inside-out excised patch recordings, oocytes, THIK-1 S109A mutant (lipid activation); conditions: read-out: Linoleic acid EC50
T3 construct: expressed in transfected cells; host or cells: Xenopus oocytes (mRNA injection)
T3 sequence (Q9HB14 whole entry S109A): as the sequence (Q9HB14 whole entry N261A) above, with S109A, A261N counted along it
Description: Supplement 41594_2025_1497_MOESM2_ESM.xlsx, sheet "ExtData_Fig_S5f" | column: Linoleic acid EC50 (µM); S109A

With `CCCCC/C=C\C/C=C\CCCCCCCC(=O)O` [linoleic acid] the EC50 (THIK-1 N261A; individual recordings) was 92.8 µM and 196 µM and 39.8 µM and 91.8 µM and 102 µM and 140 µM, the EC50 (THIK-1 N261A; mean) was 110 µM and the EC50 (THIK-1 F262A; individual recordings) was 48.7 µM and 50.7 µM and 292 µM and 208 µM and 91.3 µM and 64.3 µM and 43.4 µM and 58.4 µM. It also gave an EC50 (THIK-1 F262A; mean) of 107 µM, a Normalized currents (THIK-1 F262A; 1 µM linoleic acid) of 0.94 and a Normalized currents (THIK-1 F262A; 10 µM linoleic acid) of 1.46. The Normalized currents (THIK-1 F262A; 30 µM linoleic acid) was 1.58, the Normalized currents (THIK-1 F262A; 50 µM linoleic acid) was 2.39 and the Normalized currents (THIK-1 F262A; 100 µM linoleic acid) was 3.02. The Normalized currents (THIK-1 F262A; 150 µM linoleic acid) was 3.33, the Normalized currents (THIK-1 F262A; 200 µM linoleic acid) was 3.40 and the “Fold activation with 30.0 µM linoleic acid” value (THIK-1 F262A; individual recordings) was 1.770 and 1.480 and 1.860 and 1.430 and 1.420 and 1.440. The “Fold activation with 30.0 µM linoleic acid” value (THIK-1 F262A; mean) was 1.57, the EC50 (THIK-1 S109A; individual recordings) was 47.5 µM and 45.3 µM and 76.4 µM and 21.1 µM and 36.6 µM and 51 µM and 47.6 µM and 129 µM and the EC50 (THIK-1 S109A; mean) was 56.8 µM.
